From ChEMBL document CHEMBL1777796, “Synthesis and evaluation of carbaborane derivatives of indomethacin as cyclooxygenase inhibitors” (Bioorg Med Chem, 2011)

How the values were obtained:
[1] = biological target: T1, Prostaglandin G/H synthase 1 (Ovis aries, UniProt P05979); experiment: Inhibition of ovine COX1 assessed as conversion of [14C]-arachidonic acid to [14C]-prostaglandins preincubated for 17 mins by thin-layer chromatography analysis
T1 sequence (P05979 whole entry): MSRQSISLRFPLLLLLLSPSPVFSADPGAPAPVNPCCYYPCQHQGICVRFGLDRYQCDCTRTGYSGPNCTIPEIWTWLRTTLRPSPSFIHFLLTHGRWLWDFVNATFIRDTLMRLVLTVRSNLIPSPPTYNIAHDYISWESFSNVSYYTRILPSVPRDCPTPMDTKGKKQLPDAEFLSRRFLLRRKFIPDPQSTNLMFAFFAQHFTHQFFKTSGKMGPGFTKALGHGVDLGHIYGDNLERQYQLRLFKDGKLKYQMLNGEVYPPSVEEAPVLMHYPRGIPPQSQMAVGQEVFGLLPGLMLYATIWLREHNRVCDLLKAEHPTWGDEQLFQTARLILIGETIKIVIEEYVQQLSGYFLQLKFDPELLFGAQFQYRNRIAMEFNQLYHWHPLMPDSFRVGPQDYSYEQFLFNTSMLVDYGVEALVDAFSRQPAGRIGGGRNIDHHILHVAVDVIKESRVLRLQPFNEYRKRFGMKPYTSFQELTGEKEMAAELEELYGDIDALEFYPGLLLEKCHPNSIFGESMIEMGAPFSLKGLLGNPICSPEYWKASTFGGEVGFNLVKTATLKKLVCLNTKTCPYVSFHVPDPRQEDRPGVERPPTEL

[2] = biological target: T2, Prostaglandin G/H synthase 2 (Mus musculus, UniProt Q05769); experiment: Inhibition of mouse COX2 assessed as conversion of [14C]-arachidonic acid to [14C]-prostaglandins preincubated for 17 mins by thin-layer chromatography analysis
T2 sequence (Q05769 whole entry): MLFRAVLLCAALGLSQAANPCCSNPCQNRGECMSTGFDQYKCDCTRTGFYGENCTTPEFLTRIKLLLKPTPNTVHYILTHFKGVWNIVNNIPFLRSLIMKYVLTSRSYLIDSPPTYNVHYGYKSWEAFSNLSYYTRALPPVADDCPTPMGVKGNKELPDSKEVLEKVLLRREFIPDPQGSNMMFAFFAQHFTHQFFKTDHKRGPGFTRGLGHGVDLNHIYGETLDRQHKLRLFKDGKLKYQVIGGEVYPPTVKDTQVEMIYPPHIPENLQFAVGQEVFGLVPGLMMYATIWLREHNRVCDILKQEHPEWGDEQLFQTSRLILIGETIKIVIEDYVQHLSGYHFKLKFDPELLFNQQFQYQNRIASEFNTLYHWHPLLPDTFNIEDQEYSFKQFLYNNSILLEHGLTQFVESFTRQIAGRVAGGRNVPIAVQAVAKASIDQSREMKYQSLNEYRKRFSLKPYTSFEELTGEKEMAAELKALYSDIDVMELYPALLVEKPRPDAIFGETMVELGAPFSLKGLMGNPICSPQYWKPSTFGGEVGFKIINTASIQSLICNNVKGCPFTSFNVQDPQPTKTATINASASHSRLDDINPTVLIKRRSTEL

`COc1ccc2c(c1)c(CC(=O)OC13CC4CC(CC(C4)C1)C3)c(C)n2C(=O)c1ccc(Cl)cc1` gave an IC50 [1] greater than 25 µM and an IC50 [2] greater than 25 µM.
